From US10617612B2, “Composition comprising decanal or as active ingredients for preventing hair loss or stimulating hair growth” (INDUSTRY-ACADEMIC COOPERATION FOUNDATION, YONSEI UNIVERSITY, priority 2016, dated 2020)

Key:
[1] = tested on: FZD1 (frizzled receptor 1); test: RT-PCR gene expression in back skin tissue; assay type: in vivo, mouse; conditions: 4 weeks application
Procedure: (§1) To quantitatively analyze total RNA in skin tissue of experimental animal, 1 mL of Trizol solution was added to 50-100 mg of skin tissue and homogenized, followed by centrifugation at 12,000×g for 10 minutes at 4° C. After transferring the supernatant liquid to a new tube, 200 μl of chloroform was added and the mixture was vigorously shaken. This process above was repeated twice, then the supernatant liquid was transferred to a new tube and isoprophanol and the supernatant liquid were added at a ratio of 1:1. The mixture was shaken 10 times and then allowed to stand at room temperature for 10 minutes, and the supernatant liquid was removed after centrifugation at 12,000×g for 10 minutes at 4° C., and 1 ml of 70% ethanol was added to the remaining precipitate, and the precipitate was centrifuged at 7,500×g and 4° C. for 5 minutes. After removing the ethanol, the tube containing the RNA precipitate was dried at room temperature for 5 minutes, and the RNA pellet was dissolved using nuclease free water. The concentration of RNA extracted at 260 nm and 280 nm wavelengths was measured using a UV/VIS spectrophotometer (Beckman coulter, DU730), and agarose gel electrophoresis was performed to confirm the integrity of the RNA sample.
(§2) cDNA was synthesized by performing reverse transcription using oligo dT primer and superscript reverse transcriptase (GIBCOBRL, Gaithersburg, Md., USA) after RNA isolation. The cDNA obtained by reverse transcription was determined as a template, and PCR was performed using the 5′ and 3′ flanking sequence of the gene cDNA to be amplified as primers. In this case, primers required were synthesized by a manufacture specialized company of primers (Bionia Co., Ltd., Korea), and the primer sequences were illustrated in Table 1 below. 2 μl of the reacted cDNA reaction mixture and 2.5 units of Taq polymerase (Takara, Japan) were added to a mixture prepared by adding 5 μl of 10× reaction buffer [100 mM KCL, 20 mM Tris-HCL (pH 8.0), 2.5 mM MgCl2], 4 μl of 10 mM dNTP, and 1 μl each of 0.2 μM sense and antisense primer, and the volume was adjusted using 50 μl of distilled water, then PCR was performed using a PCR instrument. PCR conditions were set at 94° C. for 4 minutes, 94° C. for 30 seconds, 30 cycles [52° C. for 30 seconds, 72° C. for 45 seconds] and 72° C. for 10 minutes. Since 1 μl of the amplified product was electrophoresed on 1% agarose gel to check the DNA band, gene expression level was evaluated.
(§3) The expression change of Wnt/β-catenin signal transduction material which was known as hair growth promotion mechanism in the back skin tissue of the mice to which the experimental material was applied for 4 weeks, was analyzed by RT-PCR.

Wnt10b = test: RT-PCR gene expression in back skin tissue; assay type: in vivo, mouse; conditions: 4 weeks application
Procedure: as §1, §2, §3

β-catenin [2] = test: RT-PCR gene expression in back skin tissue; assay type: in vivo, mouse; conditions: 4 weeks application
Procedure: as §1, §2, §3

Axin = test: RT-PCR gene expression in back skin tissue; assay type: in vivo, mouse; conditions: 4 weeks application
Procedure: as §1, §2, §3

[3] = tested on: GSK3β (glycogen synthase kinase 3β); test: RT-PCR gene expression in back skin tissue; assay type: in vivo, mouse; conditions: 4 weeks application
Procedure: as §1, §2, §3

[4] = tested on: LRP5 (low-density lipoprotein receptor-related protein 5); test: RT-PCR gene expression in back skin tissue; assay type: in vivo, mouse; conditions: 4 weeks application
Procedure: as §1, §2, §3

[5] = tested on: embryos of sea urchins and copepods; conditions: reported physiological activity; cited from earlier work
[6] = tested on: vascular endothelial growth factor (VEGF); test: RT-PCR gene expression in back skin tissue; assay type: in vivo, mouse; conditions: 4 weeks application
Procedure: as §1
as §2, with “PCR conditions were set at 94° C. for 4 minutes, 94° C. for 30 seconds, 30 cycles [52° C. for 30 seconds, 72° C. for 45 seconds] and 72° C. for 10 minutes.” left out
(§4) In addition, to investigate hair growth promoting action mechanism of Decanal, the expression change of endocrine factors affecting hair growth was evaluated. The gene expression level of insulin-like growth factor 1 (IGF1), vascular endothelial growth factor (VEGF), hepatocyte growth factor (HGF), and keratinocyte growth factor (KGF), which were growth factors affecting hair growth promotion in back skin tissue, was evaluated. […]

[7] = tested on: hepatocyte growth factor (HGF); test: RT-PCR gene expression in back skin tissue; assay type: in vivo, mouse; conditions: 4 weeks application
Procedure: as §1
as §2, with “PCR conditions were set at 94° C. for 4 minutes, 94° C. for 30 seconds, 30 cycles [52° C. for 30 seconds, 72° C. for 45 seconds] and 72° C. for 10 minutes.” left out
as §4

[8] = tested on: insulin-like growth factor 1 (IGF1); test: RT-PCR gene expression in back skin tissue; assay type: in vivo, mouse; conditions: 4 weeks application
Procedure: as §1
as §2, with “PCR conditions were set at 94° C. for 4 minutes, 94° C. for 30 seconds, 30 cycles [52° C. for 30 seconds, 72° C. for 45 seconds] and 72° C. for 10 minutes.” left out
as §4

[9] = tested on: keratinocyte growth factor (KGF); test: RT-PCR gene expression in back skin tissue; assay type: in vivo, mouse; conditions: 4 weeks application
Procedure: as §1
as §2, with “PCR conditions were set at 94° C. for 4 minutes, 94° C. for 30 seconds, 30 cycles [52° C. for 30 seconds, 72° C. for 45 seconds] and 72° C. for 10 minutes.” left out
as §4

C57BL/6N mice = test: Hair regrowth in mice with back hair removed, skin application (visual observation, hair length); assay type: in vivo; conditions: 3 mg/mouse/day on back skin once a day
Procedure: To visually confirm the state of hair growth, after the animals were lightly anesthetized with ether, the back was photographed, at the end of one week, two weeks, three weeks, and four weeks after application begins, Hair length was measured using a ruler to evaluate the degree of hair growth.

[10] = Measurement of body weight change; conditions: 3 mg/mouse/day applied to back skin once a day
Procedure: The animals were kept in a temperature of 21±2.0° C., relative humidity of 50±5%, and 12 hours of day and night cycles. During the experiment, the mice were fed with a regular solid feed (chow) with water freely.
To examine the effect of promoting hair growth, 8-week-old mouse of telogen hair showing pink color of dorsal skin was used. After removing the hair of the mouse backing using a clipper for a mouse, the sample was applied once a day at 4:00 PM for four weeks. Decanal (3 mg/mouse/day) which is experimental material and minoxidil (3 mg/mouse/day) used as a reference drug were dissolved in vehicle (ethanol:water:propylene glycol=5:3:2) and applied, and the vehicle only was applied to the negative control group.
The body weight of the experimental animals was measured weekly from immediately before application of the hair growth treatment to the end of application.

[11] = tested on: hair follicles of back skin; test: Histological analysis of back skin (Hematoxylin-Eosin, hair follicle number and diameter); assay type: in vivo; conditions: back skin after 4 weeks of application, 3 mg/mouse/day
Description: After 4 weeks of application, the animals were sacrificed and the back skin tissue sample was extracted with scissors and forceps around the area where the experimental material was applied, and fixed with formalin. After each step was dehydrated with alcohol and xylene, the back skin tissue sample was embedded with paraffin, and was cut into 5 μm slice using a microtome, and then paraffin was removed with alcohol and xylene. […] A pathology speculum specialist was examined to evaluate the hair growth cycle, and quantity of hair follicle and diameter were measured on an optical microscope.
The results of measurement of the hair follicle number in each experimental group under an optical microscope of magnification of 40 are illustrated in FIG. 3.

[12] = tested on: nematode parasitic on plant roots; conditions: reported; cited from earlier work
β-catenin [13] = test: Western blot of back skin tissue; assay type: in vivo, mouse; conditions: 4 weeks application
Procedure: A predetermined amount of visceral fat or liver tissue was homogenized with liquid nitrogen and lysis buffer in a mortar, and then centrifuged at 13,000×g at 4° C. for 20 minutes. And the middle layer was taken and the protein was quantified by the Bradford method. 50 μg of protein was electrophoresed on SDS polyacrylamide gel, electro blotted onto PVDF hyper film, and reacted with β-catenin and β-actin antibody (Cell Signaling Technology, Danvers, Mass., USA), respectively. Signals of each protein were visualized using a chemiluminescent detection system (Amersham) and the band thickness was quantified using Quantity One Analysis Software (Bo-Rad Laboratories).
The Wnt/β-catenin Signal transduction pathway is known to be involved in promoting entry into the anagen by regulating hair follicle cycle. The expression level of β-catenin was analyzed by western blotting in the back skin tissues in order to determine whether the signal transduction pathway related to hair growth promotion was activated.

CCCCCCCCCC=O [DC, Decanal]
FZD1 gene expression compared to negative control [1]: significantly increased | Wnt10b gene expression compared to negative control (Wnt10b): significantly increased | β-catenin gene expression compared to negative control (β-catenin [2]): significantly increased | Axin gene expression compared to negative control (Axin): significantly decreased | GSK3β gene expression compared to negative control [3]: significantly decreased | LRP5 gene expression compared to negative control [4]: significantly increased | Effect on embryos of sea urchins and copepods [5]: a reproductive failure was induced by inducing apoptosis | VEGF gene expression compared to negative control [6]: significantly increased expression | HGF gene expression compared to negative control [7]: significantly increased expression | IGF1 gene expression compared to negative control [8]: significantly increased expression | KGF gene expression compared to negative control [9]: significantly increased expression | Increase of hair length compared to negative control after 4 weeks (C57BL/6N mice; 4 weeks, p<0.001): 438% | Visual state of hair growth after 4 weeks (C57BL/6N mice; 4 weeks, vs negative control): hair was grown evenly and heartily in the larger number of individuals compared to the negative control group | Hair length compared to negative control, from the 2nd week (C57BL/6N mice; measured weekly): significantly increased from the 2nd week | Onset of hair growth (visual observation) (C57BL/6N mice; negative control: no hair after 2 weeks): hair began to grow from the 2nd week after application | Body weight after 4 weeks of application, difference between experimental groups [10]: not significantly different | Histological appearance of hair follicles [11]: the hair follicle was lengthened and appeared outside the skin | Increase of hair follicle diameter compared to negative control ([11]; image analysis): 33% | Increase of number of hair follicles compared to negative control ([11]; magnification of 40): 193% | Nematicidal activity [12]: strong nematicidal activity | β-catenin protein expression effect compared to minoxidil group (β-catenin [13]): superior to the minoxidil group | Increase of β-catenin protein expression compared to negative control (β-catenin [13]; 3 mg/mouse/day): 79%

Nc1cc(N2CCCCC2)nc(N)[n+]1[O-] [MXD, minoxidil, reference compound]
Body weight after 4 weeks of application, difference between experimental groups [10]: not significantly different
